# According to US20250026770A1, “NOVEL BORONSOME FACILITATING DIAGNOSIS AND TREATMENT” (PEKING UNIVERSITY, priority 2021, published 2025):
# Test system: DNA repair system
# Assay: γ-h2ax staining
# Excerpt: In terms of integration of radiotherapy and chemotherapy, the preferred drug for encapsulation was Doxorubicin. […] Subsequently, we considered that if we could start from the principles of BNCT and selected individual drugs that disrupt the DNA replication process, its efficacy could be further enhanced. Therefore, a poly(ADP-ribose)polymerase (PARP) inhibitor (olaparib) was selected.
smiles,measurement,value
O=C(c1cc(Cc2n[nH]c(=O)c3ccccc23)ccc1F)N1CCN(C(=O)C2CC2)CC1 [olaparib],Interference on the DNA repair system,verified its interference on the DNA repair system
